Data on five molecules can be found in US9884881B2, “Chelates of lead (II) and bismuth (III) based on trans-di-N-picolinate tetraazacycloalkanes” (CNRS—CENTRE NATIONAL DE LA RECHERCHE SCIENTIFIQUE, priority 2013, dated 2018).

SMILES strings stand for the structures.

The nature of data set [1]: pM value (free lead concentration) of lead (II) chelates. Type of data set: physicochemical. The conditions noted are these: pH 7.4, Pb(II) 10 μM, ligand concentration ten times greater. The protocol:
(§1) For the DODPA or Me-DODPA chelates with lead (II), the thermodynamic stability constant pK was determined directly by potentiometery at 25° C., for a concentration of 0.10 M in KNO3. […] The pM values corresponding to the non-chelated lead concentrations were therefore computed for the DODPA or Me-DODPA chelates with lead (II) and compared with the value known for the DOTA chelate with lead (II). This value pM is defined by the negative logarithm of the free metal concentration at a pH of 7.4 and with a concentration of Pb(II) of 10 μM and a ligand concentration that is ten times greater. A pM value of 12.3 was measured for the chelate of DODPA and lead (II) and 14.9 for the chelate of Me-DODPA and lead (II) while the known pM value for the complex of DOTA and lead (II) is 18.4

Data set [2] in a line: Thermodynamic stability constant pK of lead (II) chelates by potentiometry. Type of data set: physicochemical. The conditions noted are these: 25° C., 0.10 M in KNO3. The protocol:
as §1

Data set [3] is described as follows: Kinetics of dissociation of complexes in DCl 0.1 M by NMR. The format is physicochemical. The protocol:
The kinetics of dissociation of these complexes were also studied by NMR. In this context, the [Bi(Me-DODPA)](NO3) and [Pb(Me-DODPA)] complexes were dissolved in DCl 0.1 M.

The nature of data set [4]: In vitro stability of the radio-labeled chelate in human plasma. The format is in vitro ADME. The protocol: The stability of the serum and of the in vitro chelate were also studied by TLC and by HPLC.
For the stability of the serum, 200 μL of radiomarked Me-DODPA^2− solution (activity: 1 MBq, radiochemical purity: 95%) were mixed with 800 μL of human plasma. The plasma stability values were controlled in comparison with free ^213Bi, after 1 and 2 hours of incubation (about 1 and 2 half-lives) at ambient temperature by direct gel permeation chromatography on plasma in a PD-10 column and by TLC analysis of this supernatant after precipitation of the plasma proteins with ammonium sulfate. The TLC analysis was performed under the same conditions as earlier. After precipitation, the activity in the precipitate was measured (78.8%) as also the activity in the supernatant ([…]).

Data set [5] is described as follows: 1H NMR competition with DOTA for complexation of bismuth (III). Type of data set: physicochemical. The protocol: As regards the chelate of Me-DODPA and bismuth (III) or DODPA and bismuth (III), the thermodynamic stability constants were evaluated by NMR ^1H (in a concentration of 10^−2 M) in studying the competitivity of the complexation of bismuth (III) with Me-DODPA or DODPA and DOTA. Indeed, such a constant cannot be measured directly by potentiometery for the bismuth chelates
A mole equivalent of […] was added to an equimolar solution of DODPA and DOTA at pH=1. The pH was then adjusted to 3 and an NMR spectrum was recorded. After five days at 25° C., it was observed that about 40% of the DODPA had been complexated with bismuth (III). […] Chem., 2003, 42, 2342-2349, is about 30.3.

Data set [6] in a line: Kinetics of complexation with lead (II) by UV/Vis spectroscopy. The format is physicochemical. The conditions noted are these: equimolar 0.74×10^-4 M, pH=7. The source says:
(§2) The kinetics of complexation of Me-DODPA chelates with bismuth (III) and lead (II) were studied by UV/Vis spectroscopy.
Referring to FIG. 4, a total complexation of Me-DODPA with lead (II) was observed ten minutes after the equimolar mixing (0.74×10^−4 M) of an aqueous solution of PbCl2 and an aqueous solution of Me-DODPA at pH=7.

The nature of data set [7]: Kinetics of complexation with bismuth (III) by UV/Vis spectroscopy. The format is physicochemical. The conditions noted are these: 1.65×10^-4 M each, stirring at ambient temperature. The protocol:
as §2
An aqueous solution of Bi(NO3)3.5H2O (1.65×10^−4 M) was added to an aqueous solution of Me-DODPA (1.65×10^−4M). The UV/Vis spectra were recorded at different reaction times.

Setting [8] is: human plasma, ammonium sulfate precipitation.

Take `O=C([O-])c1cccc(CN2CCNCCN(Cc3cccc(C(=O)[O-])n3)CCNCC2)n1.[Pb+2]` [Pb(DODPA)]: the “pM value (negative logarithm of the free metal concentration)” value in data set [1] is 12.3. The “thermodynamic stability constant pK” value in data set [2] is listed as 17.09.
Consider `CN1CCN(Cc2cccc(C(=O)[O-])n2)CCN(C)CCN(Cc2cccc(C(=O)[O-])n2)CC1.[Pb+2]` [[Pb(Me-DODPA)]], for which the “pM value (negative logarithm of the free metal concentration)” value in data set [1] was 14.9. In data set [3], the “dissociation of the complex” value is “total dissociation of the complex [Pb(Me-DODPA)] was observed at the end of seven days”. Further, the “thermodynamic stability constant pK” value in data set [2] turned out to be 18.74.
Regarding `CN1CCN(Cc2cccc(C(=O)[O-])n2)CCN(C)CCN(Cc2cccc(C(=O)[O-])n2)CC1.CN1CCN(Cc2cccc(C(=O)[O-])n2)CCN(C)CCN(Cc2cccc(C(=O)[O-])n2)CC1.CN1CCN(Cc2cccc(C(=O)[O-])n2)CCN(C)CCN(Cc2cccc(C(=O)[O-])n2)CC1.[213Bi+3].[213Bi+3]` [(^213Bi(Me-DODPA))^+], the “stability in human plasma” value in data set [4] (1 and 2 hours of incubation at ambient temperature) is reported as “stable in human plasma for at least two half-lives”. In addition, the “radioactivity of the supernatant detected at Fr=0.5 (intact chelate), TLC” value in data set [4] (human plasma supernatant after protein precipitation) is “more than 90%”. Besides, in data set [4] (setting [8]), the “activity in the precipitate after precipitation of plasma proteins” value stood at 78.8% and the “activity in the supernatant after precipitation of plasma proteins” value amounted to 3.8%.
For `CN1CCN(Cc2cccc(C(=O)O)n2)CCN(C)CCN(Cc2cccc(C(=O)O)n2)CC1` [Me-DODPA], the “bismuth (III) complexated in equimolar mixture of ligand and DOTA” value in data set [5] (equimolar mixture of Me-DODPA and DOTA) is on record as “the totality of the bismuth (III) was complexated by the Me-DODPA”. Besides, in data set [6], the “time to total complexation with lead (II)” value is “ten”. Besides, the “time to total complexation with bismuth (III)” value in data set [7] was found to be 30 min.
Consider `O=C(O)c1cccc(CN2CCNCCN(Cc3cccc(C(=O)O)n3)CCNCC2)n1` [DODPA], for which, in data set [5] (equimolar ligand and DOTA, one mole equivalent Bi, pH 3, five days at 25° C., 10^-2 M), the “ligand complexated with bismuth (III) in competition with DOTA” value is given as “about 40%”.
